According to the supplement of paper PMC11451515:

System: P12-Ichikawa
Test: cell viability relative to DMSO control; higher = less cytotoxic
Conditions: 48 h
Method in brief: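 Viability was expressed as a per-plate percentage of DMSO wells, with cell-free wells as background. Leukemia cells (NOMO1 or SEM at 500 cells/well, P12-Ichikawa at 1000 cells/well) were adapted for at least four passages in each medium and seeded in 1536-well plates (5 μl). Library compounds in DMSO were pin-dosed over an 11-point threefold series from 47 μM to 0.79 nM, and CellTiter-Glo One luminescence was read after 48 h at 37°C.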

[1] = HPLM + 10% dialyzed FBS, 0.000781 µM
[2] = HPLM + 10% dialyzed FBS, 0.00234 µM
[3] = HPLM + 10% dialyzed FBS, 0.00702 µM
[4] = HPLM + 10% dialyzed FBS, 0.0211 µM
[5] = HPLM + 10% dialyzed FBS, 0.0632 µM
[6] = HPLM + 10% dialyzed FBS, 0.19 µM
[7] = HPLM + 10% dialyzed FBS, 0.569 µM
[8] = HPLM + 10% dialyzed FBS, 1.71 µM
[9] = HPLM + 10% dialyzed FBS, 5.12 µM
[10] = HPLM + 10% dialyzed FBS, 15.4 µM
[11] = HPLM + 10% dialyzed FBS, 46.1 µM
[12] = RPMI 5 mM glucose + 10% FBS, 0.000781 µM
[13] = RPMI 5 mM glucose + 10% FBS, 0.00234 µM
[14] = RPMI 5 mM glucose + 10% FBS, 0.00702 µM
[15] = RPMI 5 mM glucose + 10% FBS, 0.0211 µM
[16] = RPMI 5 mM glucose + 10% FBS, 0.0632 µM
[17] = RPMI 5 mM glucose + 10% FBS, 0.19 µM
[18] = RPMI 5 mM glucose + 10% FBS, 0.569 µM
[19] = RPMI 5 mM glucose + 10% FBS, 1.71 µM
[20] = RPMI 5 mM glucose + 10% FBS, 5.12 µM
[21] = RPMI 5 mM glucose + 10% FBS, 15.4 µM
[22] = RPMI 5 mM glucose + 10% FBS, 46.1 µM
[23] = RPMI 5 mM glucose + 10% dialyzed FBS, 0.000781 µM
[24] = RPMI 5 mM glucose + 10% dialyzed FBS, 0.00234 µM
[25] = RPMI 5 mM glucose + 10% dialyzed FBS, 0.00702 µM
[26] = RPMI 5 mM glucose + 10% dialyzed FBS, 0.0211 µM
[27] = RPMI 5 mM glucose + 10% dialyzed FBS, 0.0632 µM
[28] = RPMI 5 mM glucose + 10% dialyzed FBS, 0.19 µM
[29] = RPMI 5 mM glucose + 10% dialyzed FBS, 0.569 µM
[30] = RPMI 5 mM glucose + 10% dialyzed FBS, 1.71 µM
[31] = RPMI 5 mM glucose + 10% dialyzed FBS, 5.12 µM
[32] = RPMI 5 mM glucose + 10% dialyzed FBS, 15.4 µM
[33] = RPMI 5 mM glucose + 10% dialyzed FBS, 46.1 µM

Row | SMILES | cell viability [1] [%] | cell viability [2] [%] | cell viability [3] [%] | cell viability [4] [%] | cell viability [5] [%] | cell viability [6] [%] | cell viability [7] [%] | cell viability [8] [%] | cell viability [9] [%] | cell viability [10] [%] | cell viability [11] [%] | cell viability [12] [%] | cell viability [13] [%] | cell viability [14] [%] | cell viability [15] [%] | cell viability [16] [%] | cell viability [17] [%] | cell viability [18] [%] | cell viability [19] [%] | cell viability [20] [%] | cell viability [21] [%] | cell viability [22] [%] | cell viability [23] [%] | cell viability [24] [%] | cell viability [25] [%] | cell viability [26] [%] | cell viability [27] [%] | cell viability [28] [%] | cell viability [29] [%] | cell viability [30] [%] | cell viability [31] [%] | cell viability [32] [%] | cell viability [33] [%]
1 | CCn1c(-c2nonc2N)nc2c(C#CC(C)(C)O)ncc(OC[C@H]3CCCNC3)c21 | 91.1 | 94 | 89 | 84.1 | 73.1 | 74.6 | 69.9 | 66.3 | 65.8 | 61.4 | 58.7 | 77 | 86.2 | 76.2 | 70.6 | 53.1 | 56.4 | 46.2 | 52.7 | 45.1 | 45.9 | 46.7 | 81.2 | 87.4 | 80.5 | 77.3 | 66.5 | 66.7 | 58.9 | 56.6 | 48.8 | 50.2 | 49.9
2 | OC1=CC2=C(C=C1)C(=O)\C(=C(O2)\C3=CC(=C(O)C=C3)O)O | 102 | 105 | 98.2 | 91.1 | 94 | 87.7 | 89.5 | 92.4 | 86 | 82.4 | 44 | 94.1 | 94.7 | 97.5 | 87 | 91.2 | 96.5 | 88.8 | 85.5 | 86 | 88.1 | 32.2 | 86.5 | 91.1 | 88 | 87.2 | 97.6 | 88.1 | 85 | 84.8 | 90.4 | 79.7 | 32.5
3 | O=C1\C=C/C=C2/[C@H]3CNC[C@H](C3)CN12 | 108 | 109 | 115 | 109 | 122 | 122 | 125 | 123 | 116 | 97.5 | 58.3 | 116 | 111 | 120 | 129 | 122 | 125 | 124 | 132 | 113 | 112 | 54.8 | 111 | 109 | 110 | 108 | 121 | 120 | 132 | 126 | 118 | 99.9 | 67.7
4 | N[C@H]2CN(CC12CC1)c3c(F)cc4c(c3Cl)[N@@](C=C(C4=O)C(=O)O)C5C[C@H]5F (stereo partly specified) | 97.7 | 91.2 | 101 | 87.6 | 96.6 | 89.8 | 87.3 | 96.1 | 88.8 | 85.4 | 89.9 | 79.9 | 91 | 88.8 | 90.4 | 85.8 | 94.5 | 83 | 82.9 | 95 | 83.5 | 86.1 | 80.7 | 84.8 | 86 | 88.3 | 82.5 | 85.2 | 80.9 | 78 | 84.2 | 77.7 | 81.3
5 | N\C1=N\C2=C(N=C[N]2COCCO)C(=O)N1 | 98.2 | 109 | 106 | 107 | 111 | 112 | 111 | 112 | 109 | 105 | 91.3 | 93.7 | 112 | 106 | 115 | 110 | 99.4 | 110 | 106 | 106 | 92.3 | 84.6 | 97.2 | 97.8 | 111 | 98.2 | 105 | 97.3 | 110 | 94.7 | 98.9 | 102 | 85.1
6 | O=C(NCCCCN1CCOCC1)c1cc2ccccc2o1 | 119 | 122 | 119 | 115 | 114 | 120 | 113 | 117 | 112 | 112 | 102 | 115 | 122 | 120 | 118 | 106 | 116 | 107 | 105 | 101 | 95.5 | 101 | 123 | 128 | 123 | 131 | 118 | 120 | 115 | 108 | 116 | 110 | 108
7 | O=S(=O)([O-])CCS.[Na+] | 109 | 122 | 125 | 119 | 127 | 126 | 126 | 129 | 30.8 | 18.1 | 15.3 | 100 | 114 | 116 | 118 | 132 | 121 | 136 | 134 | 37 | 18.5 | 16.7 | 114 | 121 | 121 | 120 | 130 | 131 | 135 | 139 | 80.8 | 43.2 | 20.1
8 | CC(C)=CCC/C(C)=C/CC/C(C)=C/CSc1ccccc1C(=O)O | 103 | 121 | 117 | 113 | 119 | 105 | 91.2 | 83.7 | 90.6 | 61 | 36.4 | 106 | 106 | 111 | 95.7 | 101 | 90 | 82.1 | 67.3 | 60 | 47.9 | 34.4 | 104 | 112 | 120 | 116 | 98.1 | 97.2 | 99.5 | 76.4 | 75.2 | 60 | 39.8
9 | CC(C)(S)[C@@H](N)C(=O)O | 108 | 112 | 115 | 120 | 106 | 120 | 113 | 122 | 117 | 115 | 108 | 100 | 109 | 114 | 121 | 96.1 | 112 | 118 | 121 | 115 | 125 | 99.5 | 104 | 110 | 103 | 115 | 98 | 109 | 107 | 112 | 114 | 111 | 95.8
10 | C[C@@H]1CN(Cc2ccc(F)cc2)[C@@H](C)CN1C(=O)c1cc2c(C(=O)C(=O)N(C)C)cn(C)c2cc1Cl | 111 | 118 | 118 | 128 | 115 | 123 | 125 | 125 | 125 | 125 | 108 | 110 | 114 | 111 | 126 | 122 | 124 | 132 | 113 | 124 | 117 | 107 | 119 | 132 | 117 | 124 | 122 | 130 | 124 | 127 | 123 | 118 | 117
11 | CC(C)N(C[C@H]1O[C@@H](n2cnc3c(N)ncnc32)[C@H](O)[C@@H]1O)[C@H]1C[C@@H](CCc2nc3cc(C(C)(C)C)ccc3[nH]2)C1 | 87.7 | 93.6 | 101 | 98.2 | 99.2 | 103 | 103 | 12.9 | 11.5 | 11.6 | 2.23 | 90 | 96.5 | 103 | 99.2 | 95.4 | 105 | 102 | 103 | 108 | 92.7 | 1.91 | 96.2 | 100 | 103 | 104 | 96.5 | 97.6 | 113 | 99.2 | 31.4 | 31 | 1.74
12 | Cc1ccc(C(=O)Nc2cccc(C(F)(F)F)c2)cc1-c1ccc2nc(NCCN3CCOCC3)ncc2c1 | 110 | 111 | 112 | 111 | 116 | 109 | 107 | 92.6 | 85 | 64.2 | 42.6 | 105 | 106 | 119 | 115 | 113 | 111 | 113 | 109 | 62.2 | 50.3 | 31.7 | 110 | 107 | 107 | 105 | 116 | 107 | 103 | 92.5 | 73.7 | 49.3 | 30.5
13 | COc1ccc(C(CN(C)C)C2(O)CCCCC2)cc1 (stereo unspecified) | 111 | 106 | 108 | 107 | 115 | 114 | 95.3 | 96.5 | 106 | 98.2 | 108 | 116 | 115 | 134 | 151 | 120 | 91.1 | 81.8 | 97 | 106 | 85.7 | 109 | 98.4 | 111 | 109 | 103 | 120 | 106 | 105 | 106 | 101 | 91.5 | 97.1
14 | CC(NC(C)(C)C)C(=O)c1cccc(Cl)c1 (stereo unspecified) | 114 | 113 | 117 | 118 | 117 | 111 | 120 | 124 | 122 | 115 | 115 |  |  |  |  |  |  |  |  |  |  |  | 114 | 127 | 119 | 123 | 123 | 128 | 125 | 124 | 121 | 118 | 108
